One may read the AC50 as the midpoint of the concentration-response curve, whichever way the signal moves.

The values below come from US20250171438A1 (Agios Pharmaceuticals, Inc., priority 2022, published 2025).

Read-outs that look alike come from different tables or passages of the source.

For the experiment, the target named is T1, human PAH with the R408W mutation (Homo sapiens, UniProt P00439, R408W).
T1 construct: expressed in transfected cells
T1 sequence (P00439 1-452 R408W): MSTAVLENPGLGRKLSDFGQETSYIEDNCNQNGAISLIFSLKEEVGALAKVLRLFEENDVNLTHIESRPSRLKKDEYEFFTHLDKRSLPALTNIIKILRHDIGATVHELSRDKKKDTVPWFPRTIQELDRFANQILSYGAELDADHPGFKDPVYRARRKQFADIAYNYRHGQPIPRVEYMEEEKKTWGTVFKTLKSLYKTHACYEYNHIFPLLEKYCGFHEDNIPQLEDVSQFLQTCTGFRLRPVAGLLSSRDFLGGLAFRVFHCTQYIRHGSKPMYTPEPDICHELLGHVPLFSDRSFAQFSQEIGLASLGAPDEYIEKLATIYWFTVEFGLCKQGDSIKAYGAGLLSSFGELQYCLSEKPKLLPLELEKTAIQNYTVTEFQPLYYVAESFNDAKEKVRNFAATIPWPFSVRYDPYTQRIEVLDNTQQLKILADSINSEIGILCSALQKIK
Nature of the experiment: Cell Based Phenylalanine Flux Assay. The note with it: 13C-Tyrosine by LC-MS, average where tested multiple times.

Setting [1] is: A375 cells expressing human R408W PAH, 24 hrs compound incubation, read-out: AC50.
Where [2] appears, read: A375 cells expressing human R408W PAH, 24 hrs with compound, read-out: AC50.

Consider `O=C(c1nnc(N2CCC(F)CC2)o1)N1CCc2[nH]cnc2[C@H]1c1nc2ccccc2s1` [Example 1591], for which the AC50 under setting [1] was under 0.5 µM. As to `Cc1nnc(C(=O)N2CCc3[nH]cnc3C2c2nc3ccc(Cl)cc3[nH]2)s1` (centres unmarked), the AC50 (AC50, A375 cells expressing human R408W PAH, 24 hrs with compound) was over 5 µM.

Consider `O=C(c1nc(Cl)cs1)N1CCc2[nH]cnc2C1c1nc2c(F)cccc2s1` (centres unmarked), for which the AC50 under setting [2] lay in the range of 1 to 5 µM. On to `O=C(CC1CC1)N1CCc2[nH]cnc2[C@H]1c1nc2ccccc2[nH]1` [Example 931, (S)-1-(4-(1H-benzo[d]imidazol-2-yl)-6,7-dihydro-1H-imidazo[4,5-c]pyridin-5(4H)-yl)-2-cyclopropylethanone], for which the half-maximal activity concentration (AC50) under setting [1] was under 0.5 µM. Same read-out and setting: to `O=C(c1nnc(-c2cnn(CC(F)(F)F)c2)o1)N1CCc2[nH]cnc2[C@@H]1c1nc2c(F)cccc2s1` [Example 1843, (R)-(4-(4-fluorobenzo[d]thiazol-2-yl)-6,7-dihydro-1H-imidazo[4,5-c]pyridin-5(4H)-yl)(5-(1-(2,2,2-trifluoroethyl)-1H-pyrazol-4-yl)-1,3,4-oxadiazol-2-yl)methanone] belongs 1 to 5 µM.

With `O=C(CCc1ccccc1)N1CCc2[nH]cnc2C1c1nc2ccccc2[nH]1` (centres unmarked), the AC50 under setting [2] lay within 1 to 5 µM. Consider `Cc1nc(CCC2CC2)oc1C(=O)N1CCCc2[nH]cnc2[C@H]1c1nc2ccccc2s1` (single isomer, unassigned), for which, under setting [2], the AC50 lay in the range of 1 to 5 µM. Take `c1cnc(N2CCc3[nH]cnc3[C@@H]2c2nc3ccccc3s2)nc1` [Example 1437, (R)-2-(5-(pyrimidin-2-yl)-4,5,6,7-tetrahydro-1H-imidazo[4,5-c]pyridin-4-yl)benzo[d]thiazole]: the AC50 under setting [1] lay in the range of 1 to 5 µM.

For `Cn1nc(C2CC2)nc1C(=O)N1CCc2[nH]cnc2C1c1nc2c(F)cccc2s1` (centres unmarked), under setting [2], the AC50 was over 5 µM. As to `O=C(CC1CC1(F)F)N1CCc2[nH]cnc2[C@H]1c1nc2ccccc2s1` (single isomer, unassigned) [Example 1274], under setting [1], the AC50 lay in the range of 0.5 to 1 µM. Take `CC[C@H](O)c1nc(C(F)F)c(C(=O)N2CCc3[nH]cnc3[C@@H]2c2nc3c(F)cccc3s2)o1` [Example 2064, (4-(difluoromethyl)-2-((S)-1-hydroxypropyl)oxazol-5-yl)((R)-4-(4-fluorobenzo[d]thiazol-2-yl)-6,7-dihydro-1H-imidazo[4,5-c]pyridin-5(4H)-yl)methanone]: the AC50 under setting [1] is 1 to 5 µM. The same measure, in the same setting: to `Cc1nc(-c2ccccn2)oc1C(=O)N1CCc2[nH]cnc2[C@H]1c1nc2c(F)cccc2s1` [Example 1445, (S)-(4-(4-fluorobenzo[d]thiazol-2-yl)-6,7-dihydro-1H-imidazo[4,5-c]pyridin-5(4H)-yl)(4-methyl-2-(pyridin-2-yl)oxazol-5-yl)methanone] belongs under 0.5 µM. For the compound `O=C(C1CC1F)N1CCc2[nH]cnc2C1c1nc2ccccc2s1` (centres unmarked), the concentration at half-maximal activity (AC50) under setting [2] was over 5 µM. Turning to `CC(C)(F)c1ncc(C(=O)N2CCc3[nH]cnc3[C@H]2c2nc3c(F)cccc3s2)o1` [Example 1487, (S)-(4-(4-fluorobenzo[d]thiazol-2-yl)-6,7-dihydro-1H-imidazo[4,5-c]pyridin-5(4H)-yl)(2-(2-fluoropropan-2-yl)oxazol-5-yl)methanone], the AC50 under setting [1] is under 0.5 µM. Consider `O=C(c1cnn2ccc(Cl)cc12)N1CCc2[nH]cnc2[C@H]1c1nc2ccccc2[nH]1` [(S)-(4-(1H-benzo[d]imidazol-2-yl)-6,7-dihydro-1H-imidazo[4,5-c]pyridin-5(4H)-yl)(5-chloropyrazolo[1,5-a]pyridin-3-yl)methanone], for which the half-maximal activity concentration (AC50) under setting [2] was 1 to 5 µM. As for `Cc1c(C(=O)N2CCc3[nH]cnc3[C@H]2c2nc3c(F)cccc3s2)cnn1-c1ccccn1` [Example 1933, (S)-(4-(4-fluorobenzo[d]thiazol-2-yl)-6,7-dihydro-1H-imidazo[4,5-c]pyridin-5(4H)-yl)(5-methyl-1-(pyridin-2-yl)-1H-pyrazol-4-yl)methanone], the AC50 under setting [1] was in the range of 1 to 5 µM. The same measure, in the same setting: the same measure for `N#Cc1nc(OCCC(F)(F)F)oc1C(=O)N1CCc2[nH]cnc2[C@@H]1c1nc2ccccc2s1` [Example 1673, (R)-5-(4-(benzo[d]thiazol-2-yl)-4,5,6,7-tetrahydro-1H-imidazo[4,5-c]pyridine-5-carbonyl)-2-(3,3,3-trifluoropropoxy)oxazole-4-carbonitrile]: over 5 µM; for `O=C(c1cnn2cc(F)ccc12)N1CCc2[nH]cnc2[C@H]1c1nc2ccccc2s1` [Example 1039]: 0.5 to 1 µM.

As for `CN(C)CCn1cc(C(=O)N2CCc3[nH]cnc3[C@H]2c2nc3c(F)cccc3s2)c(C(F)(F)F)n1` [Example 1641], the AC50 under setting [1] was under 0.5 µM. For the compound `O=C(c1nc(C(F)(F)F)co1)N1CCc2[nH]cnc2C1c1nc2ccccc2s1` (centres unmarked), under setting [2], the AC50 was 1 to 5 µM. `Clc1csc(CN2CCc3[nH]cnc3C2c2nc3ccccc3[nH]2)n1` (centres unmarked): the AC50 under setting [2] was over 5 µM. For `CC(C)n1ncc(C(=O)N2CCc3[nH]cnc3[C@@H]2c2nc3c(F)cccc3s2)c1Br` [Example 1954, (R)-(5-bromo-1-isopropyl-1H-pyrazol-4-yl)(4-(4-fluorobenzo[d]thiazol-2-yl)-6,7-dihydro-1H-imidazo[4,5-c]pyridin-5(4H)-yl)methanone], under setting [1], the AC50 is 1 to 5 µM. For the compound `Cc1ncc(C(=O)N2CCc3[nH]cnc3C2c2nc3c(F)cccc3s2)o1` (centres unmarked), under setting [2], the AC50 was over 5 µM. On to `O=C(c1nnc(-c2ccc(C(F)(F)F)cc2)o1)N1CCc2[nH]cnc2[C@H]1c1nc2ccccc2s1` [Example 1768], for which the AC50 under setting [1] is 0.5 to 1 µM. As to `O=C(c1nnc(CCN2CCOCC2)o1)N1CCc2[nH]cnc2C1c1nc2ccccc2s1` (centres unmarked), under setting [2], the AC50 is over 5 µM. As to `C[C@H]1CN(C(=O)c2nnc(-c3ccc(F)cn3)o2)[C@H](c2nc3ccccc3s2)c2nc[nH]c21` [Example 1756, ((4S,7S)-4-(benzo[d]thiazol-2-yl)-7-methyl-6,7-dihydro-1H-imidazo[4,5-c]pyridin-5(4H)-yl)(5-(5-fluoropyridin-2-yl)-1,3,4-oxadiazol-2-yl)methanone], the AC50 under setting [1] is 1 to 5 µM.

On to `CC(C)(O)c1ccc2c(C(=O)N3CCc4[nH]cnc4[C@H]3c3nc4c(F)cccc4s3)cnn2c1` [Example 1501, (S)-(4-(4-fluorobenzo[d]thiazol-2-yl)-6,7-dihydro-1H-imidazo[4,5-c]pyridin-5(4H)-yl)(6-(2-hydroxypropan-2-yl)pyrazolo[1,5-a]pyridin-3-yl)methanone], for which the AC50 under setting [1] is under 0.5 µM. `Cn1ncc(C(=O)N2CCc3[nH]cnc3C2c2nc3c(F)cccc3s2)n1` (centres unmarked): the AC50 under setting [2] is 1 to 5 µM. For the compound `CC(C)(O)c1ncc(C(=O)N2CCc3[nH]cnc3[C@@H]2c2nc3c(F)cccc3s2)o1` [Example 1484, (R)-(4-(4-fluorobenzo[d]thiazol-2-yl)-6,7-dihydro-1H-imidazo[4,5-c]pyridin-5(4H)-yl)(2-(2-hydroxypropan-2-yl)oxazol-5-yl)methanone], the AC50 under setting [1] lay within 1 to 5 µM. On the same count and under the same terms, to `O=C(c1sc(N2CCOCC2)nc1C(F)(F)F)N1CCc2[nH]cnc2[C@@H]1c1nc2c(F)cccc2s1` [Example 1634, (R)-(4-(4-fluorobenzo[d]thiazol-2-yl)-6,7-dihydro-1H-imidazo[4,5-c]pyridin-5(4H)-yl)(2-morpholino-4-(trifluoromethyl)thiazol-5-yl)methanone] belongs 0.5 to 1 µM. `O=C(C1CC1)N1CCc2[nH]cnc2C1c1nc2ccc(F)cc2[nH]1` (centres unmarked): the AC50 under setting [2] was in the range of 1 to 5 µM. On the same count and under the same terms, the same measure for `Cc1nc(-c2ccccn2)oc1C(=O)N1CCCc2[nH]cnc2C1c1nc2ccccc2s1` (centres unmarked): 1 to 5 µM. Consider `O=C(c1cnn2cc(F)ccc12)N1CCc2[nH]cnc2[C@H]1c1nc2ccccc2[nH]1` [Example 924, (S)-(4-(1H-benzo[d]imidazol-2-yl)-6,7-dihydro-1H-imidazo[4,5-c]pyridin-5(4H)-yl)(6-fluoropyrazolo[1,5-a]pyridin-3-yl)methanone], for which the AC50 under setting [1] is 0.5 to 1 µM. `O=C(c1nccs1)N1CCc2[nH]cnc2[C@H]1c1nc2ccc(F)cc2[nH]1` (single isomer, unassigned): the AC50 under setting [2] fell in the range of 1 to 5 µM. For `Cc1ccn2ncc(C(=O)N3CCc4[nH]cnc4[C@H]3c3nc4ccccc4[nH]3)c2c1` [(S)-(4-(1H-benzo[d]imidazol-2-yl)-6,7-dihydro-1H-imidazo[4,5-c]pyridin-5(4H)-yl)(5-methylpyrazolo[1,5-a]pyridin-3-yl)methanone], the AC50 under setting [2] fell in the range of 1 to 5 µM. On the same count and under the same terms, the same measure for `O=C(c1ccno1)N1CCc2[nH]cnc2C1c1nc2ccc(F)cc2s1` (centres unmarked): 1 to 5 µM; for `c1ccc2sc(C3c4nc[nH]c4CCN3CC3CC3)nc2c1` (centres unmarked): over 5 µM. On to `CCc1ccc2c(C(=O)N3CCc4[nH]cnc4[C@H]3c3nc4ccccc4s3)cnn2c1` [Example 1243], for which the concentration at half-maximal activity (AC50) under setting [1] lay within 1 to 5 µM. `Cc1nc(-c2ccccn2)oc1C(=O)N1CC(C)c2[nH]cnc2C1c1nc2ccccc2s1` (centres unmarked): the AC50 under setting [2] is 1 to 5 µM. On the same count and under the same terms, to `O=C(c1cscn1)N1CCc2[nH]cnc2[C@H]1c1nc2ccccc2[nH]1` [(S)-(4-(1H-benzo[d]imidazol-2-yl)-1,4,6,7-tetrahydro-5H-imidazo[4,5-c]pyridin-5-yl)(thiazol-4-yl)methanone] belongs 1 to 5 µM. With `O=C(c1nncs1)N1CCc2[nH]cnc2[C@@H]1c1nc2cc(F)ccc2s1` [Example 1300, (R)-(4-(5-fluorobenzo[d]thiazol-2-yl)-6,7-dihydro-1H-imidazo[4,5-c]pyridin-5(4H)-yl)(1,3,4-thiadiazol-2-yl)methanone], the AC50 under setting [1] was in the range of 1 to 5 µM.
